Molecules are shown by their SMILES. Where a name gives a salt, the structure may show the parent alone.

The first experiment deals with T1, Nav1.7 (or SCN9A) channel; HEK cells stably transfected with hSCN9A (Homo sapiens, UniProt Q15858).
T1 construct: expressed in transfected cells
T1 sequence (Q15858 whole entry): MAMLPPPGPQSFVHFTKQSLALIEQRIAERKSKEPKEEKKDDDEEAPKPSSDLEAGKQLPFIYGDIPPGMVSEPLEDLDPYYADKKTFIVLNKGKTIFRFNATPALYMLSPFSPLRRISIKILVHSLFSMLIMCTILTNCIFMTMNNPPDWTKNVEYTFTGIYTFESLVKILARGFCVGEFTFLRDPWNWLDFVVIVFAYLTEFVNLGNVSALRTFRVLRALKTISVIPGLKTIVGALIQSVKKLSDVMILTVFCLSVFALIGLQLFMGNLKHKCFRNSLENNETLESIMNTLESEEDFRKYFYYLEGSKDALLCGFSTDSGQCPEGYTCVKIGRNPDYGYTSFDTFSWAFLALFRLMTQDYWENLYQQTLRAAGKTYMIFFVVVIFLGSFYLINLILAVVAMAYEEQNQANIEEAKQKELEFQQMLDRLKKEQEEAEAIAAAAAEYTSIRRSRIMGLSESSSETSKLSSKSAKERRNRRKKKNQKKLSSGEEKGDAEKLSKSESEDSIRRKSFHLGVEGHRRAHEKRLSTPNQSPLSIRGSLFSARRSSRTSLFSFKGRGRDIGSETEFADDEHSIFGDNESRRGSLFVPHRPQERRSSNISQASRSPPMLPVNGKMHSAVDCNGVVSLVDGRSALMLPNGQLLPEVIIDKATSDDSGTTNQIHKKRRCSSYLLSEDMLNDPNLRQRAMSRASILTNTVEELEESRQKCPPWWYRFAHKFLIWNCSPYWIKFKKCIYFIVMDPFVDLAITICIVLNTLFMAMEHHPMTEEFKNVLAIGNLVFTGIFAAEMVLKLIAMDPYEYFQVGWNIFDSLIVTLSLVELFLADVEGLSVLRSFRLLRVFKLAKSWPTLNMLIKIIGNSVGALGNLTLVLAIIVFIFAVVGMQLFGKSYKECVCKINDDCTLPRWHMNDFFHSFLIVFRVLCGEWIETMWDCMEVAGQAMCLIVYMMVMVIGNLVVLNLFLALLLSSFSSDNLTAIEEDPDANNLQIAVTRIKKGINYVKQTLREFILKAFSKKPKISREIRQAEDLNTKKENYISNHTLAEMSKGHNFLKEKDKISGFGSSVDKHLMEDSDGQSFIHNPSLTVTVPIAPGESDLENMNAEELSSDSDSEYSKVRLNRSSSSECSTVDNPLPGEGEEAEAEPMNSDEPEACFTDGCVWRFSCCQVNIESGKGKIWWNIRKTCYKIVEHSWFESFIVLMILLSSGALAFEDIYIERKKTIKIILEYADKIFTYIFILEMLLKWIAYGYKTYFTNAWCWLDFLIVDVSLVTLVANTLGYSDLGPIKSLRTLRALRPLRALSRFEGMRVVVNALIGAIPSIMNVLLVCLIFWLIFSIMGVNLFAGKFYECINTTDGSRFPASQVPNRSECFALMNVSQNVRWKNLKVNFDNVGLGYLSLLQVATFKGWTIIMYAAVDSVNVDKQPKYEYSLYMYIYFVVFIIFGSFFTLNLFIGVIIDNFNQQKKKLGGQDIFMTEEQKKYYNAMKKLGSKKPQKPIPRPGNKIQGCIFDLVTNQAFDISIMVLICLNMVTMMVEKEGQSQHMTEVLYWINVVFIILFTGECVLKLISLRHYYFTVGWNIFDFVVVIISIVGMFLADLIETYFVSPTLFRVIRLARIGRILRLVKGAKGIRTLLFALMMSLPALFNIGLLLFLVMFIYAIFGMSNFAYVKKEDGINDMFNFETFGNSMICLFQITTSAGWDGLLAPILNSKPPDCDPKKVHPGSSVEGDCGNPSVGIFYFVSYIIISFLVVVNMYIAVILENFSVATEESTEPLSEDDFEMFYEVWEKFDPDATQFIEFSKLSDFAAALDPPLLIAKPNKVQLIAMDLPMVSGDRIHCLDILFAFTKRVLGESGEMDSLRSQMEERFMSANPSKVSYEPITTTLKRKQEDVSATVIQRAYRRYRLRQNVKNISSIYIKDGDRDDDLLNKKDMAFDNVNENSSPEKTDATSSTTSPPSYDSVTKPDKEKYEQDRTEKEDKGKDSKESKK
The experiment in a line: Nav1.7 block, PatchXpress 7000 automated whole-cell voltage clamp, estimated IC50 (EIC50). The settings on record: PatchXpress platform; hSCN9A HEK cells held at V1/2 of inactivation; estimated IC50. The format is cell-based.
Turning to `N#Cc1cc(S(=O)(=O)Nc2nccs2)ccc1Oc1ccc(Cl)cc1-c1ccnn1-c1ccccc1` [Example 171, 4-(4-chloro-2-(1-phenyl-1H-pyrazol-5-yl)phenoxy)-3-cyano-N-(thiazol-2-yl)benzenesulfonamide], the IC50 (usually the midpoint of a concentration-inhibition curve) was 110 nM.

For `Cc1cccc(-c2cccc(OC(C)C)c2)c1Oc1ccc(S(=O)(=O)Nc2ncns2)cc1C#N` [Example 32, 3-cyano-4-[(3′-isopropoxy-3-methylbiphenyl-2-yl)oxy]-N-1,2,4-thiadiazol-5-ylbenzenesulfonamide], the IC50 is 3380 nM.

Regarding `CCOC(=O)Cn1nccc1-c1cc(F)ccc1Oc1ccc(S(=O)(=O)Nc2nccs2)cc1F` [Example 221, ethyl 2-(5-(5-fluoro-2-(2-fluoro-4-(N-thiazol-2-ylsulfamoyl)phenoxy)phenyl)-1H-pyrazol-1-yl)acetate], the IC50 is 450 nM.

Take `Cn1cc(-c2ccc(Cl)cc2)c(Oc2ccc(S(=O)(=O)Nc3ncns3)cc2C#N)n1` [Example 64, 4-{[4-(4-chlorophenyl)-1-methyl-1H-pyrazol-3-yl]oxy}-3-cyano-N-1,2,4-thiadiazol-5-ylbenzenesulfonamide]: the IC50 was 780 nM.

Regarding `N#Cc1cc(S(=O)(=O)Nc2nccs2)ccc1Oc1cc(C2CC2)nn1CC(F)(F)F` [Example 194, 3-Cyano-4-[5-cyclopropyl-2-(2,2,2-trifluoro-ethyl)-2H-pyrazol-3-yloxy]-N-thiazol-2-yl-benzenesulfonamide], the IC50 was 36800 nM.

Regarding `Cn1ccc(-c2c(F)cccc2Oc2ccc(S(=O)(=O)Nc3ncns3)cc2C#N)n1` [Example 85, 3-Cyano-4-[3-fluoro-2-(1-methyl-1H-pyrazol-3-yl)-phenoxy]-N-[1,2,4]thiadiazol-5-yl-benzene-sulfonamide], the IC50 was 1430 nM.

Regarding `N#Cc1cc(S(=O)(=O)Nc2ncns2)ccc1Oc1ccc(F)cc1-c1ccc(F)cc1F` [Example 46, 3-cyano-N-1,2,4-thiadiazol-5-yl-4-[(2′,4′,5-trifluorobiphenyl-2-yl)oxy]benzenesulfonamide], the IC50 is 210 nM.

As for `N#Cc1ccc(-c2ccccc2Oc2ccc(S(=O)(=O)Nc3ncns3)cc2C#N)cc1` [Example 11, 3-cyano-4-[(4′-cyanobiphenyl-2-yl)oxy]-N-1,2,4-thiadiazol-5-ylbenzenesulfonamide], the IC50 is 430 nM.

Staying with this experiment, now noted: estimated IC50; hSCN9A HEK cells, PatchXpress platform; Examples 283-814.
`CCn1nc(C2CC2)cc1-c1ccc(Oc2ccc(S(=O)(=O)Nc3nccs3)cc2C#N)cc1` [Example 369, 3-cyano-4-[4-(3-cyclopropyl-1-ethyl-1H-pyrazol-5-yl)phenoxy]-N-1,3-thiazol-2-ylbenzenesulfonamid]: the IC50 is 490 nM.

As to `Cn1nccc1-c1cc(C(F)(F)F)ncc1Oc1ccc(S(=O)(=O)Nc2cscn2)cc1C#N` [Example 601, 3-cyano-4-{[4-(1-methyl-1H-pyrazol-5-yl)-6-(trifluoromethyl)pyridin-3-yl]oxy}-N-1,3-thiazol-4-ylbenzenesulfonamide], the IC50 was 940 nM.

As to `Cn1nc(C(F)(F)F)cc1-c1ccc(Oc2cc(F)c(S(=O)(=O)Nc3ncc(F)s3)cc2F)cc1` [Example 682, 2,5-difluoro-N-(5-fluoro-1,3-thiazol-2-yl)-4-{4-[1-methyl-3-(trifluoromethyl)-1H-pyrazol-5-yl]phenoxy}benzenesulfonamide], the IC50 is 710 nM.

Regarding `Cn1nccc1-c1ccc(F)cc1Oc1ccc(S(=O)(=O)Nc2nccs2)cc1C#N` [Example 542, 3-cyano-4-[5-fluoro-2-(1-methyl-1H-pyrazol-5-yl)phenoxy]-N-1,3-thiazol-2-ylbenzenesulfonamide], the IC50 was 66 nM.

In the case of `Cn1nccc1-c1cc(F)ccc1Oc1cc(F)c(S(=O)(=O)Nc2ncns2)cc1Cl` [Example 621, 5-chloro-2-fluoro-4-(4-fluoro-2-(1-methyl-1H-pyrazol-5-yl)phenoxy)-N-(1,2,4-thiadiazol-5-yl)benzenesulfonamide], the IC50 was 75 nM.

For `Cn1nc(C(F)(F)F)cc1-c1ccc(Oc2ccc(S(=O)(=O)Nc3ncc(F)s3)cc2C#N)cc1F` [Example 719, 3-cyano-4-{3-fluoro-4-[1-methyl-3-(trifluoromethyl)-1H-pyrazol-5-yl]phenoxy}-N-(5-fluoro-1,3-thiazol-2-yl)benzenesulfonamide], the IC50 is 160 nM.

`Nc1nccc(-c2cc(F)ccc2Oc2cc(F)c(S(=O)(=O)Nc3ncc(Cl)s3)cc2F)n1` [Example 622, 4-[2-(2-aminopyrimidin-4-yl)-4-fluorophenoxy]-N-(5-chloro-1,3-thiazol-2-yl)-2,5-difluorobenzenesulfonamide]: the IC50 is above 1000 nM.

Turning to `N#Cc1cc(S(=O)(=O)Nc2ncc(Cl)s2)ccc1Oc1ccc(F)cc1-c1ccc(N)nc1` [Example 587, 4-[2-(6-Aminopyridin-3-yl)-4-fluorophenoxy]-N-(5-chloro-1,3-thiazol-2-yl)-3-cyanobenzenesulfonamide], the IC50 was 200 nM.

Take `O=S(=O)(Nc1cscn1)c1cc(Cl)c(Oc2ccc(Cl)cc2-c2cnn[nH]2)cc1F` [Example 777, 5-chloro-4-[4-chloro-2-(1H-1,2,3-triazol-5-yl)phenoxy]-2-fluoro-N--thiazol-4-ylbenzenesulfonamide]: the IC50 was 1300 nM.

Consider `N#Cc1cc(S(=O)(=O)Nc2ncns2)ccc1Oc1ccc(-n2cc(COC(=O)C(F)(F)F)cn2)cc1` [Example 287, [1-(4-{2-cyano-4-[(1,2,4-thiadiazol-5-ylamino)sulfonyl]phenoxy}phenyl)-1H-pyrazol-4-yl]methyl trifluoroacetate], for which the IC50 was above 1000 nM.

Still in this experiment, the particulars now being: estimated IC50; hSCN9A HEK cells, PatchXpress platform; Examples 815-1040.
`N#Cc1cc(S(=O)(=O)Nc2nncs2)ccc1Oc1ccc(Cl)cc1-c1ccnc(N)c1` [Example 818, 4-[2-(2-aminopyridin-4-yl)-4-chlorophenoxy]-3-cyano-N-1,3,4-thiadiazol-2-ylbenzenesulfonamide]: the IC50 is 320 nM.

Turning to `N#Cc1cc(S(=O)(=O)Nc2nncs2)ccc1Oc1ccc(Cl)cc1-c1cn[nH]c1` [Example 839, 4-[4-chloro-2-(1H-pyrazol-4-yl)phenoxy]-3-cyano-N-1,3,4-thiadiazol-2-ylbenzenesulfonamide], the IC50 was 130 nM.

For `Nc1cc(-c2cc(F)ccc2Oc2cc(F)c(S(=O)(=O)Nc3ncccn3)cc2Cl)ccn1` [Example 949, 4-[2-(2-aminopyridin-4-yl)-4-fluorophenoxy]-5-chloro-2-fluoro-N-pyrimidin-2-ylbenzenesulfonamide], the IC50 was 87 nM.

For `CN(C)c1n[nH]cc1-c1cc(Cl)ccc1Oc1cc(F)c(S(=O)(=O)Nc2cscn2)cc1Cl` [Example 860, 5-chloro-4-{4-chloro-2-[3-(dimethylamino)-1H-pyrazol-4-yl]phenoxy}-2-fluoro-N-1,3-thiazol-4-ylbenzenesulfonamide], the IC50 was 170 nM.

Turning to `N#Cc1cc(S(=O)(=O)Nc2cscn2)ccc1Oc1ccc(C(F)(F)F)cc1-c1ccnnc1` [Example 953, 3-cyano-4-[2-pyridazin-4-yl-4-(trifluoromethyl)phenoxy]-N-1,3-thiazol-4-ylbenzenesulfonamide], the IC50 was 110 nM.

On to `O=S(=O)(Nc1nncs1)c1cc(F)c(Oc2ccc(Cl)cc2-c2ccnc(N3CCNCC3)c2)cc1F` [Example 833, 4-[4-chloro-2-(2-piperazin-1-ylpyridin-4-yl)phenoxy]-2,5-difluoro-N-1,3,4-thiadiazol-2-ylbenzenesulfonamide], for which the IC50 is 5.9 nM.

Values taken from patent US8541588B2, “Sulfonamide derivatives” (Pfizer Limited, priority 2009, dated 2013).
